Measurements reported in paper PMC9177597, “Structural basis of substrate recognition and translocation by human very long-chain fatty acid transporter ABCD1” (Nature Communications, 2022).

Experiments:
[1] = target: T1, chABCD1 (chimeric ABCD1) (Homo sapiens, UniProt P33897); test: ATPase assay (colorimetric Pi release); assay type: biochemical; settings: varying ATP, with or without C22:0-CoA, 2 mM MgCl2, LMNG + CHS, pH 7.5, 37 °C; Michaelis-Menten fit
T1 construct: single polypeptide: N-terminal FLAG tag, PMP-4 residues 1-65 replacing human ABCD1 residues 1-63, then human ABCD1 64-745; HEK293F; homodimer; LMNG/CHS for assays, digitonin for cryo-EM; with PMP-4 (peroxisomal membrane protein related, ABCD1 homolog, Caenorhabditis elegans; N-terminal segment fused to the target chain)
T1 sequence (P33897 64-745): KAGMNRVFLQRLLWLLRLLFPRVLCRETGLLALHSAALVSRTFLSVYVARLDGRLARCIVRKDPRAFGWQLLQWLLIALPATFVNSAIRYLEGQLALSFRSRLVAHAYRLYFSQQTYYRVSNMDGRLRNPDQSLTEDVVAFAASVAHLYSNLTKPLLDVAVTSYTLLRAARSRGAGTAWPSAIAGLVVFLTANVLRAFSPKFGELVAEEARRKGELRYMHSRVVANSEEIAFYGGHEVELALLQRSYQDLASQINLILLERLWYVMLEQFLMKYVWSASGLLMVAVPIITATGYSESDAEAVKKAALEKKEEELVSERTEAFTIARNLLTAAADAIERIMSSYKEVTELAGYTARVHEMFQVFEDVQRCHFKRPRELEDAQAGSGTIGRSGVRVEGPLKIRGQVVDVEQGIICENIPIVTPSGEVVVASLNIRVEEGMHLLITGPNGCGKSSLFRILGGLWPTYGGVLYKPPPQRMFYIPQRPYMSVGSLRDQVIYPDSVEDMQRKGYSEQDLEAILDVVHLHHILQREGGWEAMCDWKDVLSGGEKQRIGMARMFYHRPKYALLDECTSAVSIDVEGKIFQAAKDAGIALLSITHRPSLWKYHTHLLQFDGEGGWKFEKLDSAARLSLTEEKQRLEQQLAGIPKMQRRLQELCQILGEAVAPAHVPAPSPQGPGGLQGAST

[2] = target: T1, chABCD1 (chimeric ABCD1); test: substrate-stimulated ATPase assay (colorimetric Pi release); assay type: biochemical
[3] = target: chimeric ABCD1, C-terminal helix truncated variant (ΔGlu694-Thr745) (Caenorhabditis elegans | human) (UniProt O45730)

| EC50 [2] [µM] | Molecule | also measured |
| --- | --- | --- |
|  | Nc1ncnc2c1ncn2[C@@H]1O[C@H](COP(=O)(O)OP(=O)(O)OP(=O)(O)O)[C@@H](O)[C@H]1O [ATP] | Km [1]: The data points were fitted with a Michaelis-Menten equation |
| ~2 | CCCCCCCCCCCCCCCCCCCCCCCC(=O)SCCNC(=O)CCNC(=O)[C@H](O)C(C)(C)COP(=O)(O)OP(=O)(O)OC[C@H]1O[C@@H](n2cnc3c(N)ncnc32)[C@H](O)[C@@H]1OP(=O)(O)O [C24:0-CoA] |  |
| ~2 | CCCCCCCCCCCCCCCCCCCCCCCCCC(=O)SCCNC(=O)CCNC(=O)[C@H](O)C(C)(C)COP(=O)(O)OP(=O)(O)OC[C@H]1O[C@@H](n2cnc3c(N)ncnc32)[C@H](O)[C@@H]1OP(=O)(O)O [C26:0-CoA] |  |
|  | chimeric ABCD1, C-terminal helix truncated variant (ΔGlu694-Thr745) (from UniProt O45730 1-65; P33897 64-693) | Vmax of C22:0-CoA-stimulated ATPase activity (LMNG + CHS, 2 mM ATP) (mol Pi/min/mol protein) [3]: 17.5 |
